Experimental data: patent US20020026053A1, “Novel 3-(substituted) -2- indolinones compounds and use thereof as inhibitors of protein kinase activity” (priority 1997, published 2002)
Where “and” joins values, the source holds several entries; their conditions need not be identical. Equal values may be shown once.

Test system: FLK-1 receptor
Experiment: FLK-1 Assay (cellular/catalytic ELISA, VEGF-stimulated phosphotyrosine)
Assay type: cell-based
Design: concentration or dose not given beside the values
Procedure: The cellular/catalytic assays described herein are performed in an ELISA format. The general procedure is as follows: a compound is introduced to cells expressing the test kinase, either naturally or recombinantly, for a selected period of time after which, if the test kinase is a receptor, a ligand known to activate the receptor is added. The cells are lysed and the lysate is transferred to the wells of an ELISA plate previously coated with a specific antibody recognizing the substrate of the enzymatic phosphorylation reaction. Non-substrate components of the cell lysate are washed away and the amount of phosphorylation on the substrate is detected with an antibody specifically recognizing phosphotyrosine compared with control cells that were not contacted with a test compound.
An ELISA assay is conducted to measure the kinase activity of the FLK-1 receptor and more specifically, the inhibition or activation of TK activity on the FLK-1 receptor. Specifically, the following assay can be conducted to measure kinase activity of the FLK-1 receptor in cells genetically engineered to express Flk-1.
a. Corning 96-well ELISA plates (Corning Catalog No. 25805-96);
b. Cappel goat anti-rabbit IgG (catalog no. 55641);
c. PBS (Gibco Catalog No. 450-1300EB);
d. TBSW Buffer (50 mM Tris (pH 7.2), 150 mM NaCl and 0.1% Tween-20);
e. Ethanolamine stock (10% ethanolamine (pH 7.0), stored at 4° C.);
f. HNTG buffer (20 mM HEPES buffer (pH 7.5), 150 mM NaCl, 0.2% Triton X-100, and 10% glycerol);
g. EDTA (0.5 M (pH 7.0) as a 100× stock);
h. Sodium orthovanadate (0.5 M as a 100× stock);
i. Sodium pyrophosphate (0.2 M as a 100× stock);
j. NUNC 96 well V bottom polypropylene plates (Applied Scientific Catalog No. AS-72092);
k. NIH3T3 C7#3 Cells (FLK-1 expressing cells);
l. DMEM with 1× high glucose L-Glutamine (catalog No. 11965-050);
n. L-glutamine, Gibco (catalog no. 25030-016);
o. VEGF, PeproTech, Inc. (catalog no. 100-20)(kept as 1 μg/100 μl stock in Milli-Q dH2O and stored at −20° C.;
p. Affinity purified anti-FLK-1 antiserum;
q. UB40 monoclonal antibody specific for phosphotyrosine (see, Fendley, et al., 1990, Cancer Research 50:1550-1558);
r. EIA grade Goat anti-mouse IgG-POD (BioRad catalog no. 172-1011);
s. 2,2-azino-bis(3-ethylbenz-thiazoline-6-sulfonic acid (ABTS) solution (100 mM citric acid (anhydrous), 250 mM Na2HPO4 (pH 4.0), 0.5 mg/ml ABTS (Sigma catalog no. A-1888)), solution should be stored in dark at 4° C. until ready for use;
t. H2O2 (30% solution) (Fisher catalog no. H325);
u. ABTS/ H2O2 (15 ml ABTS solution, 2 μl H2O2) prepared 5 minutes before use and left at room temperature;
v. 0.2 M HCl stock in H2O;
w. dimethylsulfoxide (100%) (Sigma Catalog No. D-8418); and
y. Trypsin-EDTA (Gibco BRL Catalog No. 25200-049).
1. Coat Corning 96-well ELISA plates with 1.0 μg per well Cappel Anti-rabbit IgG antibody in 0.1M Na2CO3 pH 9.6. Bring final volume to 150 μl per well. Coat plates overnight at 4° C. Plates can be kept up to two weeks when stored at 4° C.
2. Grow cells in Growth media (DMEM, supplemented with 2.0 mM L-Glutamine, 10% FBS) in suitable culture dishes until confluent at 37° C., 5% CO2.
3. Harvest cells by trypsinization and seed in Corning 25850 polystyrene 96-well round bottom cell plates, 25,000 cells/well in 200 μl of growth media.
4. Grow cells at least one day at 37° C., 5% CO2.
5. Wash cells with D-PBS 1×.
6. Add 200 μl/well of starvation media (DMEM, 2.0 mM 1-Glutamine, 0.1% FBS). Incubate overnight at 37° C., 5% CO2.
7. Dilute Compounds 1:20 in polypropylene 96 well plates using starvation media. Dilute dimethylsulfoxide 1:20 for use in control wells.
8. Remove starvation media from 96 well cell culture plates and add 162 μl of fresh starvation media to each well.
9. Add 18 μl of 1:20 diluted compound dilution (from step 7) to each well plus the 1:20 dimethylsulfoxide dilution to the control wells (+/− VEGF), for a final dilution of 1:200 after cell stimulation. Final dimethylsulfoxide is 0.5%. Incubate the plate at 37° C., 5% CO2 for two hours.
10. […]

Compound | Flk Kinase % Inhibition (P.110)
Cc1c(Br)cc(Br)c2c1C(=Cc1ccc(F)cc1)C(=O)N2 [10717/H05] | 5.0%
Cc1c(Br)cc(Br)c2c1C(=Cc1c[nH]c3ccccc13)C(=O)N2 [10717/H06] | 12.5%
Cc1ccc(C=C2C(=O)Nc3c(Br)cc(Br)c(C)c32)s1 [10717/H07] | 1.1%
Cc1c(Br)cc(Br)c2c1C(=Cc1ccc(Br)cc1)C(=O)N2 [10717/H08] | −8.4%
Cc1c(Br)cc(Br)c2c1C(=Cc1ccc[nH]1)C(=O)N2 [10717/H09] | −17.5%
COc1cccc(O)c1C=C1C(=O)Nc2c(Br)cc(Br)c(C)c21 [10717/H10] | −5.0%
Cc1[nH]c(C=C2C(=O)Nc3c(Br)cc(Br)c(C)c32)c(Br)c1Br [10717/H11] | −0.4%
Cc1c(Br)cc(Br)c2c1C(=Cc1ccc(Br)o1)C(=O)N2 [10726/H05] | −6.1%
Cc1cn(C)cc1C=C1C(=O)Nc2c(Br)cc(Br)c(C)c21 [10726/H06] | 17.5%
Cc1c(Br)cc(Br)c2c1C(=Cc1cc(O)c3c(c1O)CCCC3)C(=O)N2 [10726/H07] | −9.5%
Cc1c(Br)cc(Br)c2c1C(=C1C(=O)Nc3ccc(F)cc31)C(=O)N2 [10726/H08] | −15.0%
Cc1c(Br)cc(Br)c2c1C(=C1C(=O)Nc3ccccc31)C(=O)N2 [10726/H09] | 1.5%
CCc1ccc(C=C2C(=O)Nc3c(Br)cc(Br)c(C)c32)s1 [10726/H10] | 11.0%
COc1ccc(C=C2C(=O)Nc3c(Br)cc(Br)c(C)c32)cc1 [10726/H11] | 12.9%
CCN(CC)c1ccc(C=C2C(=O)Nc3c(Br)cc(Br)c(C)c32)cc1 [10727/H02] | −1.2%
CCc1cc(CC)c(C=C2C(=O)Nc3c(Br)cc(Br)c(C)c32)[nH]1 [10727/H03] | 4.3%
Cc1c(Br)cc(Br)c2c1C(=Cc1cc(Cl)cc(Br)c1O)C(=O)N2 [10727/H04] | 1.8%
Cc1c(Br)cc(Br)c2c1C(=Cc1ccccc1Sc1ccc(Cl)cc1)C(=O)N2 [10727/H05] | 5.5%
Cc1c(Br)cc(Br)c2c1C(=Cc1cc3c(cc1Cl)OCO3)C(=O)N2 [10727/H06] | −4.4%
Cc1c(Br)cc(Br)c2c1C(=Cc1coc3ccccc3c1=O)C(=O)N2 [10727/H07] | −9.7%
Cc1c(Br)cc(Br)c2c1C(=Cc1cccc(C#N)c1)C(=O)N2 [10727/H08] | 2.9%
Cc1c(Br)cc(Br)c2c1C(=Cc1ccc(C#N)cc1)C(=O)N2 [10727/H09] | −1.4%
Cc1c(Br)cc(Br)c2c1C(=Cc1cc(O)ccc1O)C(=O)N2 [10727/H10] | −8.3%
COc1cccc(C=C2C(=O)Nc3c(Br)cc(Br)c(C)c32)c1OC [10727/H11] | 3.7%
COc1ccc(OC)c(C=C2C(=O)Nc3c(Br)cc(Br)c(C)c32)c1 [10728/H02] | −13.3%
COc1cccc(OC)c1C=C1C(=O)Nc2c(Br)cc(Br)c(C)c21 [10728/H03] | −2.1%

Compound | Flk Kinase % Inhibition (P.110)
COc1cc(C=C2C(=O)Nc3c(Br)cc(Br)c(C)c32)cc(OC)c1 [10728/H04] | −4.3%
COc1cc(N(C)C)ccc1C=C1C(=O)Nc2c(Br)cc(Br)c(C)c21 [10728/H05] | 1.1% and −4.4%
Cc1c(Br)cc(Br)c2c1C(=Cc1ccc3c(c1)Cc1ccccc1-3)C(=O)N2 [10728/H06] | 7.9%
Cc1c(Br)cc(Br)c2c1C(=Cc1cccc(C(F)(F)F)c1F)C(=O)N2 [10728/H07] | 1.5%
Cc1c(Br)cc(Br)c2c1C(=Cc1c(F)cccc1C(F)(F)F)C(=O)N2 [10728/H09] | 0.7%
Cc1c(Br)cc(Br)c2c1C(=Cc1ccccc1OCC(=O)O)C(=O)N2 [10728/H10] | −3.8%
COc1cc(C=C2C(=O)Nc3c(Br)cc(Br)c(C)c32)cc2c1OCO2 [10728/H11] | 3.3%
COc1ccc2ccccc2c1C=C1C(=O)Nc2c(Br)cc(Br)c(C)c21 [10729/H02] | 14.3%
COc1ccc(C=C2C(=O)Nc3c(Br)cc(Br)c(C)c32)c2ccccc12 [10729/H03] | 18.3%
CSc1ccc(C=C2C(=O)Nc3c(Br)cc(Br)c(C)c32)cc1 [10729/H04] | 1.1%
Cc1ccsc1C=C1C(=O)Nc2c(Br)cc(Br)c(C)c21 [10729/H05] | 22.4%
Cc1c(Br)cc(Br)c2c1C(=Cc1cccc(Oc3ccccc3)c1)C(=O)N2 [10729/H06] | 11.0%
Cc1c(Br)cc(Br)c2c1C(=Cc1ccccn1)C(=O)N2 [10729/H07] | 9.9%
Cc1c(Br)cc(Br)c2c1C(=Cc1cccnc1)C(=O)N2 [10729/H08] | 8.2%
Cc1c(Br)cc(Br)c2c1C(=Cc1ccncc1)C(=O)N2 [10729/H09] | −2.7%
Cc1c(Br)cc(Br)c2c1C(=Cc1ccc(N3CCCC3)cc1)C(=O)N2 [10729/H10] | 5.3%
Cc1c(Br)cc(Br)c2c1C(=CC1C=CCCC1)C(=O)N2 (stereo not drawn) [10729/H11] | 8.9%
COc1ccc(C=C2C(=O)Nc3c(Br)cc(Br)c(C)c32)c(OC)c1OC [10730/H02] | 21.2%
COc1cc(OC)c(OC)cc1C=C1C(=O)Nc2c(Br)cc(Br)c(C)c21 [10730/H03] | 11.5%
COc1cc(C=C2C(=O)Nc3c(Br)cc(Br)c(C)c32)cc(OC)c1OC [10730/H04] | 12.1%
CC(=O)n1cc(C=C2C(=O)Nc3c(Br)cc(Br)c(C)c32)c2ccccc21 [10730/H05] | 11.7%
Cc1c(Br)cc(Br)c2c1C(=Cc1ccc(-c3ccccc3Cl)o1)C(=O)N2 [10730/H07] | 19.0%
Cc1c(Br)cc(Br)c2c1C(=Cc1cc3ccccc3nc1Cl)C(=O)N2 [10730/H08] | 9.2%
COC1CC(C=C2C(=O)Nc3c(Br)cc(Br)c(C)c32)C(OC)O1 (stereo not drawn) [10730/H10] | 18.3%
Cc1cc(C=C2C(=O)Nc3c(Br)cc(Br)c(C)c32)oc1C [10730/H11] | 13.9%
